The record followed here is US9278968B2, “Imidazopyridine compounds” (ASTELLAS PHARMA INC., priority 2012, dated 2016).

The subject of experiment [1] is hind limb blood flow in rats anesthetized with pentobarbital. Nature of the experiment: Blood flow increasing action in vivo (hind limb blood flow, anesthetized rats). Also on record: species or system Wistar male rats. As to conditions: oral, 2 hours after administration, effective when blood flow rate 130% or more of solvent group. Here is the method:
The hind limb blood flow increasing action in rats anesthetized with pentobarbital was confirmed by the following test method.
Wistar male rats, 11- to 14-week (Japan SLC, Inc.) were used. An administration liquid was prepared by adding N,N-dimethyl formamide, Polyethylene Glycol 400, TWEEN 80, a 0.5% methyl cellulose aqueous solution, a 0.5 M aqueous sodium hydrogen carbonate solution, and 0.1 M hydrochloric acid to the test compound and dissolving the Example compound in an appropriate manner depending on the compound. The prepared administration liquid was orally administered, and 2 hours later, the hind limb blood flow increasing action was evaluated under anesthesia with intraperitoneally administration of 60 mg/kg of pentobarbital The hind limb blood flow was measured using a laser blood flow imaging device (PIM II Integral). By taking the average blood flow rate of a group with the administration of a solvent as 100%, the compound was evaluated to be effective when the blood flow rate was 130% or more by the administration of the compound.

Experiment [2] addresses human purified sGC (heterodimer of sGCα1 and sGCβ1) (Homo sapiens (Human), UniProt Q02108+Q02153). Nature of the experiment: sGC activation test (cGMP produced, HTRF). The format is biochemical. As to conditions: maximum activity of Preparation Example 200 compound (maximum 100 μM) taken as 100%; with SNP; read-out: EC50 (concentration giving 50% of maximum activity). Here is the method:
The activity of sGC was evaluated by measuring the amount of cGMP produced by human purified sGC.
Using an sGCα 1 gene (NCBI accession No. BC028384.2) and an sGCβ1 gene (NCBI accession No. BC047620.1), an N-terminal FLAG tag-fused sGCα1 and an sGCβ1 expression baculovirus were prepared. These viruses were transfected into insect cells Sf9 (Cat. No. 11496-015, Gibco) to express a protein. From the cell lysates of the insect cells, heterodimers of the N-terminal FLAG tag-fused sGCα1 and sGCβ1 were purified with an M2 Affinity Gel (Sigma-Aldrich, Inc.) to obtain a human sGC.
An Example compound was dissolved in DMSO and diluted 20-fold with ultrapure water. 2 μL of the diluted Example compound solution (maximum concentration of 100 μM), 2 μL of a substrate solution [0.5 μM triethanolamine buffer solution, 0.03 μM dithiothreitol, 0.01 μM GTP, 0.04 μM MgCl2, and 0.03 μM sodium nitroprusside (SNP)], and 6 μL of a human enzyme suspension were added to 384-well plates (manufactured by Greiner Bio-One), and incubated at room temperature for one hour. The measurement of the amount of cGMP was carried out, using an HTRF reagent (Cisbio).
The sGC activation action of the Example compound was calculated as an Example compound concentration which gives 50% of a maximum activity (EC50), in which the maximum activity by the addition of a compound shown in Preparation Example 200, 8-(cyclohexylmethoxy)-N-[(1R)-2-hydroxy-1-phenylethyl]-2-methylimidazo[1,2-a]pyridine-3-carboxamide hydrochloride (maximum 100 μM), is taken as 100%. Further, the maximum activity of sGC with the addition of 8-(cyclohexylmethoxy)-N-[(1R)-2-hydroxy-1-phenylethyl]-2-methylimidazo[1,2-a]pyridine-3-carboxamide hydrochloride is 10-fold or more relative to the sGC activation without the addition of the compound, and it is recognized that the compound has a good sGC activating action. […] The test results of some Example compounds that are the compounds of the formula (I) of the present invention are shown below. Further, in Tables, Ex. represents Example number.
(In general: In TR-FRET formats the signal depends on donor and acceptor labels being close together.)

The subject of experiment [3] is average blood pressure of rats. Nature of the experiment: Measurement of antihypertensive effect in vivo. More on the design: species or system Wistar male rats. The settings on record: oral. Here is the method:
As the animals, Wistar male rats, 13- to 18-week (Japan SLC, Inc.) were used. Three days prior to administration of a test compound, a cannula (PE-50, Becton, Dickinson and Company, Japan) filled with heparin physiological saline (200 U/mL, Ajinomoto Pharmaceuticals Co., Ltd.) was inserted and placed in the common carotid artery under anesthesia with intraperitoneal administration of 60 mg/kg of pentobarbital. The other end of the cannula was subcutaneously exposed to the back of the neck. After the recovery period, the placed cannula was connected to a pressure transducer (Life Kit DTS DX-100, Nihon Kohden Corporation) to record the blood pressure waveform through an amplifier (AP-641G, Nihon Kohden Co., Ltd.) and PowerLab (ML870 PowerLab8/30 (AD Instruments Japan)). The heart rate was calculated using a heart rate measuring unit (AT-601G, Nihon Kohden Co., Ltd.). After stabilization of the blood pressure, the test compound was orally administered one time to measure the blood pressure and the heart rate over time. The test compounds were administered by appropriately adding N,N-dimethylformamide, Polyethylene Glycol 400, TWEEN 80, a 0.5% aqueous methylcellulose solution, and a 0.5 M aqueous sodium hydrogen carbonate solution, and 0.1 M hydrochloric acid therein according to the compounds and dissolving it.
Further, the administration doses in Tables represent the administration doses for oral administration, and for example, 3 means 3 mg/kg. Further, the blood pressure reduction represents a maximum change value from the value before administration in the average blood pressure, and for example, −63 indicates reduction by 63 mmHg.

human purified sGC (heterodimer of sGCα1 and sGCβ1), sequence (Q02108 whole entry): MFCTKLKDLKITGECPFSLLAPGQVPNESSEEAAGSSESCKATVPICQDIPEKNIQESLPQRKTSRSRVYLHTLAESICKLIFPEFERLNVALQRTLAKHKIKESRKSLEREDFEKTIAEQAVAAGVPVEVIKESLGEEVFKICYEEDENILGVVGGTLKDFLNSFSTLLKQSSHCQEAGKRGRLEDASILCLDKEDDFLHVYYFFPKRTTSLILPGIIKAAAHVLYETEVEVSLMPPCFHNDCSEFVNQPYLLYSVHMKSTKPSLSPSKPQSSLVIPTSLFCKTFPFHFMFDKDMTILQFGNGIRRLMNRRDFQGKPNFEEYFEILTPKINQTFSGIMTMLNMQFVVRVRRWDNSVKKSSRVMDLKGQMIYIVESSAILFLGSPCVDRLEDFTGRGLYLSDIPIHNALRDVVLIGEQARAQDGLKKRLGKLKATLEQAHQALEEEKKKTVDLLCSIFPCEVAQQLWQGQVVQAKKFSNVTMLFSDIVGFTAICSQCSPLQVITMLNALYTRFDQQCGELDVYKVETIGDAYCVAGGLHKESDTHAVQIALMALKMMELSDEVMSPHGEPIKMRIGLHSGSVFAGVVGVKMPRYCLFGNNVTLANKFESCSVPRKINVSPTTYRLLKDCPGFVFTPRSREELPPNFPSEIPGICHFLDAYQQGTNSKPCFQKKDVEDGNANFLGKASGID
human purified sGC (heterodimer of sGCα1 and sGCβ1), sequence (Q02153 whole entry): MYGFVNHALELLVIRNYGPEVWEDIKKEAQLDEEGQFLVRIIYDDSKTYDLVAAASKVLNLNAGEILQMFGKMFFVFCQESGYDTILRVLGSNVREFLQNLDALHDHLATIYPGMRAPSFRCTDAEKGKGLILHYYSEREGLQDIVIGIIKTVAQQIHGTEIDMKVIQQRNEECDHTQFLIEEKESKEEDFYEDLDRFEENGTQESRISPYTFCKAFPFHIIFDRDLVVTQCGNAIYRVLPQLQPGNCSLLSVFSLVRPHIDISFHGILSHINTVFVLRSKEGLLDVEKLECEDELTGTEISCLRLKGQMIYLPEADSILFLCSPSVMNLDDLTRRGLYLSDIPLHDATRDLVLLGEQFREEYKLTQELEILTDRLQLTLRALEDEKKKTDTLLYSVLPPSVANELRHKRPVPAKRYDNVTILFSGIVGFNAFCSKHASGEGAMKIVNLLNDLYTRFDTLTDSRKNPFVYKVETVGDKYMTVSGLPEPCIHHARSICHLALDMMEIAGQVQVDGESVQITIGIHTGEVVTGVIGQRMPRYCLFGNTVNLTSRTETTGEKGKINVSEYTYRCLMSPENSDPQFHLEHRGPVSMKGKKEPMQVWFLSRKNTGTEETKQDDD

Consider `Cc1ncc(C(C)(CO)NC(=O)c2c(C)nc3c(OCc4c(F)cccc4F)cccn23)s1` (stereo not shown) [Example 2, 8-[(2,6-difluorobenzyl)oxy]-N-[1-hydroxy-2-(2-methyl-1,3-thiazol-5-yl)propan-2-yl]-2-methylimidazo[1,2-a]pyridine-3-carboxamide], for which the “hind limb blood flow increasing action” value in experiment [1] (3 mg/kg) is “exhibited a blood flow increasing action”. Moreover, the EC50 in experiment [2] was determined as 2600 nM. Besides, the “Blood pressure reduction (maximum change from value before administration in average blood pressure)” value in experiment [3] (single dose 3 mg/kg) is on record as −56 mmHg.

For the compound `CCn1nnc(C(C)(CO)NC(=O)c2c(C)nc3c(OCc4c(F)cccc4F)cccn23)n1` (stereo not shown) [Example 8, 8-[(2,6-difluorobenzyl)oxy]-N-[2-(2-ethyl-2H-tetrazol-5-yl)-1-hydroxypropan-2-yl]-2-methylimidazo[1,2-a]pyridine-3-carboxamide], in experiment [1] (3 mg/kg), the “hind limb blood flow increasing action” value is recorded as “exhibited a blood flow increasing action”. In addition, the EC50 in experiment [2] came out at 5700 nM. Besides, the “Blood pressure reduction (maximum change from value before administration in average blood pressure)” value in experiment [3] (single dose 3 mg/kg) is listed as −29 mmHg.

`Cc1nc2c(OCc3c(F)cccc3F)cccn2c1C(=O)N[C@@](C)(CO)c1ccccc1` [Example 9]: the “hind limb blood flow increasing action” value in experiment [1] (0.3 mg/kg) is given as “exhibited a blood flow increasing action”. In addition, the EC50 in experiment [2] stood at 720 nM. For the same compound, the “Blood pressure reduction (maximum change from value before administration in average blood pressure)” value in experiment [3] (single dose 3 mg/kg) is on record as −63 mmHg.

As to `Cc1nc(C(C)(CO)NC(=O)c2c(C)nc3c(OCc4c(F)cccc4F)cccn23)no1` (stereo not shown) [Example 41], the “hind limb blood flow increasing action” value in experiment [1] (0.3 mg/kg) was “exhibited a blood flow increasing action”. Also, the EC50 in experiment [2] came out at 5300 nM.

As to `Cc1nc2c(OCc3c(F)cccc3F)cccn2c1C(=O)NC(C)(CO)c1ccc(F)c(CO)c1` (stereo not shown) [Example 52], the “hind limb blood flow increasing action” value in experiment [1] (3 mg/kg) is recorded as “exhibited a blood flow increasing action”. For the same compound, in experiment [2], the EC50 turned out to be 2200 nM.

Regarding `Cc1nc2c(OCc3c(F)cccc3F)cccn2c1C(=O)NC(CO)(CO)c1ccc(F)cc1` [Example 54], the “hind limb blood flow increasing action” value in experiment [1] (3 mg/kg) is “exhibited a blood flow increasing action”. Besides, the EC50 in experiment [2] was found to be 2700 nM. For the same compound, the “Blood pressure reduction (maximum change from value before administration in average blood pressure)” value in experiment [3] (single dose 3 mg/kg) is −56 mmHg.

Turning to `Cc1nc2c(OCc3c(F)cccc3F)cccn2c1C(=O)N[C@]1(c2ccccn2)C[C@@H](O)[C@@H](O)C1` [Example 67], in experiment [1] (3 mg/kg), the “hind limb blood flow increasing action” value is “exhibited a blood flow increasing action”. The EC50 in experiment [2] came to 24000 nM.

Take `Cc1cnc([C@@]2(NC(=O)c3c(C)nc4c(OCc5c(F)cccc5F)cccn34)C[C@@H](O)[C@@H](O)C2)s1` [Example 69]: the “hind limb blood flow increasing action” value in experiment [1] (3 mg/kg) was “exhibited a blood flow increasing action”. The EC50 in experiment [2] stood at 4600 nM.

As to `Cc1nc2c(OCc3c(F)cccc3F)cccn2c1C(=O)NC(CO)(CO)c1ccc(Cl)cn1` [Example 70], the “hind limb blood flow increasing action” value in experiment [1] (1 mg/kg) is on record as “exhibited a blood flow increasing action”. For the same compound, in experiment [2], the EC50 is 3800 nM.

With `Cc1cnc(C(CO)(CO)NC(=O)c2c(C)nc3c(OCc4c(F)cccc4F)cccn23)s1` [Example 72], the “hind limb blood flow increasing action” value in experiment [1] (1 mg/kg) is “exhibited a blood flow increasing action”. Besides, the EC50 in experiment [2] turned out to be 2700 nM.

`Cc1nc2c(OCc3c(F)cccc3F)cccn2c1C(=O)NC(C)(CO)c1nnn(C2CC2)n1` (stereo not shown) [Example 76]: the “hind limb blood flow increasing action” value in experiment [1] (3 mg/kg) is “exhibited a blood flow increasing action”. Further, the EC50 in experiment [2] was 5800 nM.

`Cc1cnc([C@](C)(CO)NC(=O)c2c(C)nc3c(OCc4c(F)cccc4F)cccn23)s1` [Example 77]: in experiment [1] (0.3 mg/kg), the “hind limb blood flow increasing action” value was “exhibited a blood flow increasing action”. For the same compound, the EC50 in experiment [2] was 1300 nM.

As to `CCn1nnc([C@H](CO)NC(=O)c2c(C)nc3c(OCc4c(F)cccc4F)cccn23)n1` [Example 81], the “hind limb blood flow increasing action” value in experiment [1] (1 mg/kg) is listed as “exhibited a blood flow increasing action”. In experiment [2], the EC50 was 16000 nM.

`Cc1nc2c(OCc3c(F)cccc3F)cccn2c1C(=O)N[C@@H](CO)c1nnn(C(F)F)n1` [Example 83]: in experiment [1] (1 mg/kg), the “hind limb blood flow increasing action” value is “exhibited a blood flow increasing action”. Moreover, the EC50 in experiment [2] amounted to 2700 nM.

On to `Cc1nc2c(OCc3c(F)cccc3F)cccn2c1C(=O)NC(C)(CO)c1nnc(C(F)(F)F)o1` (stereo not shown) [Example 91], for which, in experiment [1] (0.3 mg/kg), the “hind limb blood flow increasing action” value was “exhibited a blood flow increasing action”. Besides, the EC50 in experiment [2] stood at 1500 nM.

Regarding `Cc1nc2c(OCc3c(F)cccc3F)cccn2c1C(=O)NC(CO)(CO)c1nnn(C(F)F)n1` [Example 96], the “hind limb blood flow increasing action” value in experiment [1] (0.3 mg/kg) was “exhibited a blood flow increasing action”. Besides, the EC50 in experiment [2] came to 3400 nM. The “Blood pressure reduction (maximum change from value before administration in average blood pressure)” value in experiment [3] (single dose 1 mg/kg) is reported as −21 mmHg.

On to `Cc1nc2c(OCc3c(F)cccc3F)cccn2c1C(=O)N[C@@](C)(CO)c1nnn(C(F)F)n1` [Example 114, 8-[(2,6-difluorobenzyl)oxy]-N-{(2R)-2-[2-(difluoromethyl)-2H-tetrazol-5-yl]-1-hydroxypropan-2-yl}-2-methylimidazo[1,2-a]pyridine-3-carboxamide], for which the “hind limb blood flow increasing action” value in experiment [1] (0.03 mg/kg) is recorded as “exhibited a blood flow increasing action”. Besides, the EC50 in experiment [2] stood at 730 nM. Further, the “Blood pressure reduction (maximum change from value before administration in average blood pressure)” value in experiment [3] (single dose 0.3 mg/kg) was −35 mmHg.

For `Cc1nnc([C@](C)(CO)NC(=O)c2c(C)nc3c(OCc4c(F)cccc4F)cccn23)o1` [Example 117, 8-[(2,6-difluorobenzyl)oxy]-N-[(2S)-1-hydroxy-2-(5-methyl-1,3,4-oxadiazol-2-yl)propan-2-yl]-2-methylimidazo[1,2-a]pyridine-3-carboxamide], the “hind limb blood flow increasing action” value in experiment [1] (0.1 mg/kg) is “exhibited a blood flow increasing action”. Also, the EC50 in experiment [2] was 5500 nM. In experiment [3] (single dose 1 mg/kg), the “Blood pressure reduction (maximum change from value before administration in average blood pressure)” value is given as −35 mmHg.

Consider `Cc1nnc([C@](C)(CO)NC(=O)c2c(C)nc3c(OCc4c(F)cccc4F)cccn23)s1` [Example 118, 8-[(2,6-difluorobenzyl)oxy]-N-[(2S)-1-hydroxy-2-(5-methyl-1,3,4-thiadiazol-2-yl)propan-2-yl]-2-methylimidazo[1,2-a]pyridine-3-carboxamide], for which the “hind limb blood flow increasing action” value in experiment [1] (1 mg/kg) is on record as “exhibited a blood flow increasing action”. Besides, the EC50 in experiment [2] stood at 1100 nM. The “Blood pressure reduction (maximum change from value before administration in average blood pressure)” value in experiment [3] (single dose 3 mg/kg) is −61 mmHg.
